From ChEMBL document CHEMBL2046294, “Lipo-γ-AApeptides as a new class of potent and broad-spectrum antimicrobial agents” (J Med Chem, 2012) come the findings set out here.

One may read the MIC as the least concentration at which growth counts as inhibited. Read a low MIC as a more susceptible organism. In general, HC50 refers to the concentration that lyses half of the red blood cells.

SMILES strings stand for the structures. Values after ≈ are worked out from the molar mass of the structure shown. Active and inactive are the calls of the source. The rule behind the calls is not given here.

For series [1], the system named is Escherichia coli. The series is described as follows: Antibacterial activity against Escherichia coli JM109 after 24 hrs by broth micro-dilution method. In kind it is functional. Particulars: JM109, 24 h.
For another series, the system named is Klebsiella pneumoniae. In words: Antibacterial activity against Klebsiella pneumoniae ATCC 13383 after 24 hrs by broth micro-dilution method. It counts as functional. Particulars: ATCC 13383, 24 h. A general note: Dilution methods test growth across graded concentrations, often in twofold steps.
A further series has as its system Pseudomonas aeruginosa. The series is described as follows: Antibacterial activity against multidrug-resistant Pseudomonas aeruginosa ATCC 27853 after 24 hrs by broth micro-dilution method. It counts as functional. Particulars: ATCC 27853, 24 h.
For series [2], the system named is Bacillus subtilis. The series is described as follows: Antibacterial activity against Bacillus subtilis BR151 after 24 hrs by broth micro-dilution method. The settings on record: BR151, 24 h. It counts as functional.
In series [3] the test system is Staphylococcus epidermidis. The series is described as follows: Antibacterial activity against multidrug-resistant Staphylococcus epidermidis RP62A after 24 hrs by broth micro-dilution method. In kind it is functional.
The next series deals with Enterococcus faecalis. In words: Antibacterial activity against vancomycin-resistant Enterococcus faecalis ATCC 700802 after 24 hrs by broth micro-dilution method. In kind it is functional. The settings on record: ATCC 700802, 24 h.
Series [4] concerns Staphylococcus aureus. The series is described as follows: Antibacterial activity against methicillin-resistant Staphylococcus aureus ATCC 33592 after 24 hrs by broth micro-dilution method. In kind it is functional. The settings on record: ATCC 33592, 24 h.
Another series deals with Candida albicans. The series is described as follows: Antifungal activity against Candida albicans ATCC 10231 after 48 hrs by broth micro-dilution method. It counts as functional. Particulars: ATCC 10231, 48 h.
Series [5] in a line: Toxicity in human RBC assessed as hemolysis after 1 hr. It counts as cell-based, Erythrocyte.
Series [6] can be described thus: Selectivity ratio of HC50 for human RBC to MIC for methicillin-resistant Staphylococcus aureus ATCC 33592. In kind it is functional.
Series [7] relates to Escherichia coli. In words: Antibacterial activity against Escherichia coli JM109 assessed as membrane disruption at 10 ug/ml after 2 hrs by DAPI staining-based fluorescence microscopic analysis. In kind it is functional, organism-based.
Series [8] relates to Escherichia coli. The series is described as follows: Antibacterial activity against Escherichia coli JM109 assessed as membrane disruption at 10 ug/ml after 2 hrs by propidium iodide staining-based fluorescence microscopic analysis. In kind it is functional, organism-based.
For series [9], the system named is Bacillus subtilis. The series is described as follows: Antibacterial activity against Bacillus subtilis BR151 assessed as membrane disruption at 10 ug/ml after 2 hrs by DAPI staining-based fluorescence microscopic analysis. In kind it is functional, organism-based.
The subject of series [10] is Bacillus subtilis. In words: Antibacterial activity against Bacillus subtilis BR151 assessed as membrane disruption at 10 ug/ml after 2 hrs by propidium iodide staining-based fluorescence microscopic analysis. It counts as functional, organism-based.
In series [11] the test system is Escherichia coli. The series is described as follows: Antibacterial activity against Escherichia coli JM109 assessed as loss membrane potential at 10 ug/ml. It counts as functional, organism-based.
In series [12] the test system is Bacillus subtilis. In words: Antibacterial activity against Bacillus subtilis BR151 assessed as loss membrane potential at 10 ug/ml. It counts as functional, organism-based.
For series [13], the system named is Staphylococcus aureus. In words: Antibacterial activity against methicillin-resistant Staphylococcus aureus ATCC 33592 assessed as lipid membrane depolarization after 10 mins by DiSC3-5 staining-based fluorescence analysis. In kind it is functional, organism-based.
Series [14] relates to Staphylococcus aureus. In words: Antibacterial activity against methicillin-resistant Staphylococcus aureus ATCC 33592 grown on half-MIC concentration for 17 passages measured after 17 days by broth-microdilution method. In kind it is functional, organism-based.
In series [15] the test system is N2a. The series is described as follows: Toxicity against mouse N2A cells expressing amyloid precursor protein up to 50 ug/ml after 36 hrs by MTT assay. It counts as cell-based.
Series [16] concerns N2a. In words: Toxicity against mouse N2A cells expressing amyloid precursor protein up to 100 ug/ml after 36 hrs by MTT assay. It counts as cell-based.
The nature of series [17]: Selectivity for Escherichia coli JM109 over mouse N2A cells expressing amyloid precursor protein.
Series [18] is described as follows: Selectivity for Klebsiella pneumoniae ATCC 13383 over mouse N2A cells expressing amyloid precursor protein.
A short description of series [19]: Selectivity for Bacillus subtilis BR151 over mouse N2A cells expressing amyloid precursor protein.

On to `CCCCCCCCCCCCCCCC(=O)N[C@@H](C)CN(CC(=O)N[C@@H](C)CN(CC(=O)N[C@@H](CC(C)C)CN(CC(=O)N[C@@H](CC(C)C)CN(CC(=O)N[C@@H](CC(C)C)CN(CC(N)=O)C(=O)CCCN)C(=O)CCCN)C(=O)CCCN)C(C)=O)C(C)=O`, for which the MIC in the series with Escherichia coli [1] was 2.5 µg/mL (≈ 1.94 µM); in the series on Klebsiella pneumoniae, 5 µg/mL (≈ 3.87 µM); in the series on Pseudomonas aeruginosa, 5 µg/mL (≈ 3.87 µM); against Bacillus subtilis [2], 2.5 µg/mL (≈ 1.94 µM); in series [3], 4 µg/mL (≈ 3.1 µM); with Enterococcus faecalis, 5 µg/mL (≈ 3.87 µM). In addition, the MIC in the series with Staphylococcus aureus [4] amounted to 4 µg/mL (≈ 3.1 µM); against Candida albicans, 5 µg/mL (≈ 3.87 µM). For the same molecule, the HC10 in series [5] (erythrocyte, 1 h) amounted to 60 µg/mL. Besides, in series [5] (red blood cells), the HC50 at 1 h was greater than 500 µg/mL. The Ratio in [6] was greater than 125; in series [17], 10; in series [18], 10; in series [19], 10. For the same molecule, the outcome in the series with Escherichia coli [7], in the series with Escherichia coli [8], with Bacillus subtilis [9], in the series with Bacillus subtilis [10], with Escherichia coli [11] and in the series with Bacillus subtilis [12] was Active. The result with Staphylococcus aureus [13] and in the series with Staphylococcus aureus [14] was Active. Moreover, the results for the Activity result in the series on N2a [15] and in the series on N2a [16] were “Non-toxic” and 50%, respectively.
